{"source": "patent US20200276181A1", "about": "“THIENOISOQUINOLINES AND THEIR DERIVATIVES FOR TARGETING TUBULIN, CH-TOG, AURORA A KINASE, TPX2, CDK5RAP2 AND/OR ASPM” (VALORBEC, SEC, priority 2017, published 2020)", "key": {"HFF1 (non-cancer) cells": {"tested_on": "HFF1 (non-cancer) cells", "assay": "Percentage of mitotic cells, nocodazole +/- C75", "assay_type": "cell-based", "conditions": "200 nM C75 + 33 or 66 nM nocodazole", "protocol": "FIG. 3A) is a line graph showing cytotoxicity of HeLa cells after treatment with varying concentrations of C75+/−a subthreshold dose of paclitaxel (Taxol™; 3 nM). The IC50 is shown by the dotted line. Bars show standard deviation. […] The bars indicate standard deviation. FIG. 3C) is a series of bar graphs showing the proportion of HCT 116 cells with bipolar aligned (grey), bipolar misaligned (dark grey), multipolar/fragmented (light grey, top portion of each bar) or monopolar (black) spindles 7 hours after treatment with control (DMSO), varying concentrations of paclitaxel or C75, or both as indicated (n=691; N=3). The bars show standard deviation. The combination treatments were compared to paclitaxel and C75 on their own by calculating ratios varying from the predicted ratio, and found to synergize at 100 and 200 nM. FIG. 3D) is bar graph showing the average distance between centrosome fragments in HCT116 cells after treatments as shown. While centrosome fragments moved closer together with increased concentrations of paclitaxel, they moved further apart with increased concentrations of C75 (n=105; N=3). […] FIG. 3F) is a line graph showing the percentage of mitotic HeLa or HFF1 cells treated with a range of nocodazole concentrations+/−C75 as indicated. The bars indicate standard deviation. […]"}, "[1]": {"tested_on": "HeLa, A549 and HCT116 cancer cells compared to HFF-1 non-cancer cells", "assay": "Selective toxicity, high-throughput automated analysis", "assay_type": "cell-based", "conditions": "A549, HCT116 vs HFF-1", "protocol": "(§1) FIG. 1A) is a line graph showing changes in the percentage of viable HFF-1, HeLa, A549 and HCT 116 cells after treatment with a range of C75 concentrations for 3 population doubling times (N=3). […] There were more rounded mitotic cells after C75 treatment in comparison to the control. FIG. 1C) is a line graph showing the percentage of HeLa and HFF1 cells in mitosis after treatment with various concentrations of C75 for 8 hours. The bars indicate standard deviation. FIG. 1D) is a series of images showing cells that were fixed and co-stained for tubulin (microtubules) and DAPI (DNA). Treatment of HeLa cells with 300 nM C75 caused the mitotic spindles to be disorganized, while they were not affected in HFF1 cells. […] The scale bar for the cells is 10 μm. […] FIG. 1F) is a cartoon schematic showing the key features of a metaphase cell.\n(§2) The images in FIG. 1B) show fields of view of HeLa cells treated with (dimethyl sulfoxide) DMSO or 500 nM of C75. […] Higher concentrations of C75 caused spindle phenotypes in HFF1 cells, but they were quite different in comparison to HeLa cells (FIG. 1D)."}, "HFF1 cells": {"tested_on": "HFF1 cells", "assay": "Percentage of mitotic cells, paclitaxel +/- C75", "assay_type": "cell-based", "conditions": "200 nM C75 + paclitaxel", "protocol": "FIG. 3A) is a line graph showing cytotoxicity of HeLa cells after treatment with varying concentrations of C75+/−a subthreshold dose of paclitaxel (Taxol™; 3 nM). The IC50 is shown by the dotted line. Bars show standard deviation. FIG. 3B) is a line graph showing the percentage of mitotic HeLa or HFF1 cells treated with a range of paclitaxel concentrations+/−C75 as indicated. The bars indicate standard deviation. FIG. 3C) is a series of bar graphs showing the proportion of HCT 116 cells with bipolar aligned (grey), bipolar misaligned (dark grey), multipolar/fragmented (light grey, top portion of each bar) or monopolar (black) spindles 7 hours after treatment with control (DMSO), varying concentrations of paclitaxel or C75, or both as indicated (n=691; N=3). The bars show standard deviation. The combination treatments were compared to paclitaxel and C75 on their own by calculating ratios varying from the predicted ratio, and found to synergize at 100 and 200 nM. FIG. 3D) is bar graph showing the average distance between centrosome fragments in HCT116 cells after treatments as shown. While centrosome fragments moved closer together with increased concentrations of paclitaxel, they moved further apart with increased concentrations of C75 (n=105; N=3). […]"}, "HeLa cells": {"tested_on": "HeLa cells", "assay": "Spindle morphology, fixed cells stained for tubulin and DAPI", "assay_type": "cell-based, human", "protocol": "as §1, §2"}}}
{"smiles": "COc1ccc(S(=O)(=O)N2Cc3ccccc3-c3sc(Br)cc32)cc1", "note": "[Compound C75]", "values": [{"measurement": "change in proportion of mitotic cells", "setting": "HFF1 (non-cancer) cells", "result": "no change"}, {"measurement": "toxicity in cancer cells compared to HFF-1 non-cancer cells", "setting": "[1]", "result": "selectively cause toxicity"}, {"measurement": "effect on non-cancerous cells treated with paclitaxel", "setting": "HFF1 cells", "result": "protective effect"}, {"measurement": "mitotic spindle morphology", "setting": "HeLa cells; 300 nM", "result": "spindle organization was perturbed"}, {"measurement": "mitotic spindle morphology", "setting": "HeLa cells; 750 nM", "result": "Centrosomes were fragmented or declustered and microtubules were completely absent"}]}
